Assay results reported in patent publication US20230201166A1, “METHODS FOR TREATING CANCER BY INHIBITING CARM1” (DANA-FARBER CANCER INSTITUTE, INC., priority 2020, published 2023).
Entries after “also recorded” stand apart in the source; their conditions may differ.

How the values were obtained:
RPMI-8226 = conditions: immunodeficient mouse model; cited from earlier work
[1] = test system: CARM1 activity in tumor cells; test: CARM1 activity in tumor cells (me2BAF155 western blot); type: cell-based, human; conditions: sub-micromolar levels
Experimental: BAF155 is a well-validated target of CARM1. […] Western blots were probed with Abs specific for di-methylated BAF155 protein (me2BAF155), total BAF155 protein and β-actin (loading control).
Whole cell extracts were prepared by lysis and sonication of cells in RIPA buffer [20 mM Tris-HCl (pH 7.5), 150 mM NaCl, 1 mM EDTA, 1 mM EGTA, 1% NP-40, 1% sodium deoxycholate, 2.5 mM sodium pyrophosphate, 1 mM β-glycerophosphate, 1 mM Na3VO4, 1 μg/ml leupeptin] supplemented with Halt Protease and Phosphatase Inhibitor Cocktail (ThermoFisher). Protein concentrations were determined using a Bradford Protein Assay (Bio-Rad). Protein samples (20 […]g) were resolved by SDS-PAGE using 4-12% NuPAGE Novex Bis-Tris mini gels (ThermoFisher) and transferred onto a PVDF membrane (Bio-Rad). Blots were blocked in 5% Blocker powder (Bio-Rad), 0.2% Tween in PBS and then incubated overnight with primary antibodies. Following incubation with secondary detection reagents and subsequent washing, blots were incubated in Western Lightening Plus-ECL substrate (PerkinElmer). Luminescence was captured using a ChemiDoc MP system (Bio-Rad Laboratories).

[2] = test system: SKBR3, MDA-MB-157 and MDA-MB-436 cells; test: RT-qPCR of ISGs in human tumor cells; type: cell-based; conditions: 2 μM, 7 days
Experimental: RT-qPCR analysis of selected ISGs and IFNs in human SKBR3, MDA-MB-157 and MDA-MB-436 cells treated with vehicle or CARM1 inhibitor (2 μM) for 7 days (n=3/group).
(§1) Total RNA was extracted using the RNeasy Mini Kit (Qiagen) according to the manufacturer's protocol. Extracted RNA (1 μg) was transcribed into cDNA using SuperScript IV VILO master mix with ezDNase enzyme according to the manufacturer's protocol (ThermoFisher). The cDNA samples were diluted and used for real-time quantitative PCR (RT-qPCR). Taqman master mix (ThermoFisher) and gene-specific primers were used for PCR amplification and detection using a QuantStudio 6 Flex Real-Time PCR System (ThermoFisher). The RT-qPCR data were normalized to GAPDH and HPRT (housekeeping genes) and presented as fold change of gene expression in the test sample compared to the control sample.

[3] = Toxicity study in C57Bl/6 mice; conditions: 150 mg/kg twice daily, oral gavage, 14 days, versus solvent control
Experimental: Sex and age matched C57Bl/6 mice were randomized into two groups treated twice daily with either CARM1 inhibitor (150 mg/kg) or vehicle via oral gavage for 14 days. Major organs including heart, spleen, kidney, liver, lung and small intestine were harvested for pathological assessment. […] Scale bar=50 μM.

B16F10 cells = test: RT-qPCR of interferon stimulated genes in B16F10 cells; type: cell-based, murine; conditions: 0.1-1 μM, 7 days
Experimental: as §1

[4] = test system: malignant melanoma cell lines; conditions: cited from earlier work
B16F10 tumors = test: B16F10 melanoma tumor model
Experimental: B16F10 or MC38 tumor cells (2×10^5) were injected subcutaneously in 50 μL of PBS into syngeneic C57BL/6J mice. […] Mice receiving an isotype control mAb (Bio X Cell, clone HRPN #BE0088) at the same dose in PBS were used as controls.
For checkpoint blockade experiments, tumor-bearing mice were administered with anti-CTLA4 mAb (clone 9H10, #BP0131, 100 μg/injection) or corresponding isotype control Ab (polyclonal Syrian hamster IgG, 100 μg/mouse). Alternatively, mice received anti-PD1 (clone 29F.1A12, #BE0273, 200 m/injection) or rat IgG2a isotype control Ab, anti-trinitrophenol (Clone: 2A3, 200 μg/injection) starting on day 7 post tumor inoculation and then every 3rd day.

BT549 TNBC cells = test: T cell cytotoxicity assay, BT549 TNBC cells with NY-ESO-1 TCR human CD8 T cells; type: cell-based; conditions: pre-treatment 0.1 μM for 24 hours
Experimental: FIG. 3L illustrates that inactivation of Carm1 gene in tumor cells elicits tumor immunity, showing T cell cytotoxicity assay with human BT549 TNBC and human CD8 T cells that expressed a NY-ESO-1 TCR. […] In FIGS. 3A-3L, two-way ANOVA was used to determine statistical significance for tumor measurements at time points when all mice were alive. Statistical significance for survival of mice in each treatment group were calculated by Log-rank (Mantel-Cox) test. Bar graphs represent data summarized as mean±S.E.M. and were analyzed by unpaired two-sided Mann-Whitney test. Data shown are representative of three experiments. *p<0.05, **p<0.01, ***p<0.001, ****p<0.0001, ns (non-significant).
T cell cytotoxicity assay using human tumor cells was performed using NY-ESO-1 transduced human CD8 T cells and BT549 human triple negative breast cancer cells which were HLA-A02*01 positive and endogenously expressed the NY-ESO-1 antigen. BT549 cells were co-cultured with human CD8 T cells that expressed a NY-ESO-1 TCR at increasing effector to target (E:T) ratios for 12-72 hours. Cytotoxicity was quantified by flow cytometry. All in vitro cytotoxicity assays were performed in human or murine T cell media (without addition of IL-2).

[5] = 150 mg/kg b.i.d. orally days 7-21, in combination with CTLA-4 mAb

CNC[C@@H](O)COc1ccc(Cl)c(-c2nc(-c3c(C)noc3C)c(C)c(N3CC4(CCN(C(=O)OC)CC4)C3)n2)c1 (stereo in doubt) [EZM2302]
in vivo growth of RPMI-8226 (RPMI-8226): moderately slow the in vivo growth | suppression of CARM1 activity in tumor cells [1]: suppress CARM1 activity | expression of ISGs in human breast and melanoma cancer cell lines [2]: induced the expression of a similar set of ISGs | histological changes in major organs [3]: no histological changes | weight loss [3]: no histological changes was observed in a comprehensive analysis of major organs or weight loss | interferon stimulated gene (ISG) expression / mRNA levels (B16F10 cells): induced up regulation of the ISGs expression; also recorded: significantly increased the mRNA levels of these ISGs | cell stasis, IC50 [4]: nanomolar range | inhibition of PABP1 and SMB methylation, IC50 [4]: nanomolar range | sensitization of tumors to checkpoint blockade (B16F10 tumors; [5]): sensitized B16F10 melanomas to checkpoint blockade with a CTLA-4 mAb | survival (B16F10 tumors; [5]): significant survival benefit | B16F10 tumor growth (B16F10 tumors; oral, 150 mg/kg/day, B16F10 tumor bearing mice): significantly suppresses B16F10 tumor growth | CD8 T cell-mediated cytotoxicity (BT549 TNBC cells): enhanced CD8 T cell-mediated cytotoxicity
